Results published in patent US8119819B2 (Chugai Seiyaku Kabushiki Kaisha, priority 2001, dated 2012).

Legend:
[1] = target: T1, malonyl-CoA decarboxylase prepared from rat heart (Rattus norvegicus, UniProt Q920F5); assay: In Vitro MCD inhibitory assay (spectrophotometric, 96 well); type: biochemical; conditions: read-out: IC50 of the MCD inhibitors
T1 construct: malonyl-CoA decarboxylase prepared from rat heart; from tissue; host or cells: rat heart
T1 sequence (Q920F5 39-492): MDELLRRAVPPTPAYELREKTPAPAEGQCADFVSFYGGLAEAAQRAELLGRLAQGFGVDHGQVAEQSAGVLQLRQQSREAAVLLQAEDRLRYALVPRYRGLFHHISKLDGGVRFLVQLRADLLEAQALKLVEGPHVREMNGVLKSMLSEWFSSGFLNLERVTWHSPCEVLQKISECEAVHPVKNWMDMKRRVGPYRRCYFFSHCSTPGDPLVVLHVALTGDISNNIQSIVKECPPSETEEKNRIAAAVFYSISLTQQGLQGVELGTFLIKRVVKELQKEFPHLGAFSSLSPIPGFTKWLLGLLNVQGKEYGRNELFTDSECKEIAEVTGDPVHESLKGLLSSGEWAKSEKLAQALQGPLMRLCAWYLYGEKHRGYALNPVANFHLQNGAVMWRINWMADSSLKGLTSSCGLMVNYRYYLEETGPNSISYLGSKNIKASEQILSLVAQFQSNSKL
Experimental: The following reagents are added into a 96 well titer plate: Tris-HCl buffer, 20 μL; DTE, 10 μL; 1-malate, 20 μL; NAD, 10 μL; NADH, 25 μL; water, 80 μL; malic dehydrogenase, 5 μL. The contents are mixed and incubated for 2 min followed by the addition of 5 μL of citrate synthase.

[2] = tested on: human breast cancer cells; conditions: cited from earlier work

O=CN(Cc1ccncc1)c1ncc(C(O)(C(F)(F)F)C(F)(F)F)s1 [Example 1-4, pyridin-4-yl methyl {5-[2,2,2-trifluoro-1-hydroxy-1-(trifluoromethyl)ethyl]-1,3-thiazol-2-yl}formamide]
IC50 [1]: 0.463 µM

Cc1ccc(C2=NOC(C(O)(C(F)(F)F)C(F)(F)F)C2)cc1 (stereo not drawn) [Example 11-1, 1,1,1,3,3,3-hexafluoro-2-[3-(4-methylphenyl)-4,5-dihydroisoxazol-5-yl]propan-2-ol]
IC50 [1]: 0.388 µM

CCCCCCCCCCCCCCOc1ccc(C(=O)O)o1 [TOFA, 5-(tetradecyloxy)-2-furoic acid]
malonyl-CoA level ([2]; breast carcinoma cells): 60 % of the control
antitumor activity ([2]; human breast cancer cells and xenografts): does not show any antitumor activity

CN(CC#CC(O)(C(F)(F)F)C(F)(F)F)C(=O)CCc1ccccc1 [Example 7-1, N-methyl-3-phenyl-N-[5,5,5-trifluoro-4-hydroxy-4-(trifluoromethyl)pent-2-ynyl]propanamide]
IC50 [1]: 0.739 µM

O=S(=O)(Nc1ncc(C(O)(C(F)(F)F)C(F)(F)F)s1)c1ccc(Cl)cc1 [Example 3, 4-chloro-N-{5-[2,2,2,-trifluoro-1-hydroxy-1-(trifluoromethyl)ethyl]-1,3-thiazol-2-yl}benzenesulfonamide]
IC50 [1]: 0.124 µM

CCCCN(C(=O)NCC)c1ncc(C(O)(C(F)(F)F)C(F)(F)F)s1 [Example 1-3-1, N-butyl-N′-ethyl-N-{5-[2,2,2-trifluoro-1-hydroxy-1-(trifluoromethyl)ethyl]-1,3-thiazol-2-yl}urea]
IC50 [1]: 0.213 µM

CC(C)N(C(=O)C1=NOC(C(O)(C(F)(F)F)C(F)(F)F)C1)C(C)C (stereo not drawn) [Example 8-3-3]
IC50 [1]: 0.127 µM

OC(C1CC(N2CCCC2)=NO1)(C(F)(F)F)C(F)(F)F (stereo not drawn) [Example 9-2, 1,1,1,3,3,3-hexafluoro-2-(3-pyrrolidin-1-4,5-dihydroisoxazol-5-yl)propan-2-ol]
IC50 [1]: 3.71 µM
